The test system of the assay is untransfected CHO parental cells. Put plainly: CHO parental cells assay (intracellular cAMP, RIA). In kind it is cell-based, Chinese Hamster. The conditions noted are these: tested on untransfected CHO parental cells. How it is done:
Briefly CHO parental cells were plated in 96 well packard view plates 5×10^4 cells/well in serum containing media. […] The wells were washed with serum free assay medium (containing 0.1 mM MIX) and pre-incubated for 15 minutes in this medium. Compound 1 and forskolin (positive control) were added and the cells were incubated for an additional one hour. The cells were lysed and intracellular cAMP was measured using the Amersham direct one step cAMP-RIA kit according to the manufacturers directions.

For the compound `CC(C)(C)c1ccc(-n2nc(-c3cccnc3)cc2CCCCC(=O)NC(Cc2ccc(O)cc2)C(N)=O)cc1` (stereo not shown) [Compound 1-B, N-(5-[1-(4-tert-butylphenyl)-3-pyridin-3-yl-1H-pyrazol-5-yl]pentanoyl)tyrosinamide], the hFSHR specificity result is “hFSHR specific”.

The values are drawn from patent US7456201B2, “Pharmaceutically active compounds and methods of use” (Laboratoires Serono SA, priority 2000, dated 2008).
